Data published in patent publication US20050054582A1, “Para-amino benzoic acids as integrin antagonists” (priority 2001, published 2005).
Where two headings read alike, the source gives them in different places.

Tests used:
[1] = tested on: adhesion of Ramos cells to VCAM-1; experiment: Adhesion of Ramos cells to immobilized VCAM-1 (domains 1-3); format: cell-based; conditions: Homo sapiens
Description: In Vitro Assay: Adhesion of Ramos Cells to Immobilized VCAM-1 (Domains 1-3) Preparation of VCAM-1 (Extracellular Domains 1-3)
Complementary DNA (cDNA) encoding 7-domain form of VCAM-1 (GenBank accession #M60335) was obtained using Rapid-Screen™ cDNA library panels (OriGene Technologies, Inc) at Takara Gene Analysis Center (Shiga, Japan). The primers used were 5′-CCAAGGCAGAGTACGCAAAC-3′ (sense) and 5′-TGGCAGGTATTATTAAGGAG-3′ (antisense). PCR amplification of the 3-domain VCAM-1 cDNA was perform using Pfu DNA polymerase (Stratagene) with the following sets of primers: (U-VCAMd1-3) 5′-CCATATGGTACCTGATCAATTTAAAATCGAGACCACCCCAGAA-3′; (L-VCAMdl-3) 5-CCATATAGCAATCCTAGGTCCAGGGGAGATCTCAACAGTAAA-3′. PCR cycle was 94° C. for 45 sec, 55° C. for 45 sec, 72° C. for 2 min, repeating 15 cycles. After the purification of the PCR product, the fragment was digested with KpnI-AvrII. The digested fragment was ligated into pBluescript IISK(−) (Strategene), which was linearized by digesting with KpnI-XhoI. The ligation was followed by transformation to a Dam/Dcm methylase-free E. coli strain SCS110 (Strategene) to create the donor plasmid […]. To direct VCAM-1 molecule into the insect cell secretory pathway, the VCAM-1 coding sequence was fused to signal peptide sequence of honeybee melittin. The resulting melittin-VCAM fusion was placed in correct orientation to the baculovirus polyhedrin promoter. Baculovirus transfer vector containing first 3-domain form VCAM-1 (pH10) was constructed by ligation of 0.9 kb fragment from AvrII/Klenow/BclI digests of pH7 into SalI/Klenow/BamHI digests of pMelBacB (Invitrogen). Recombinant baculovirus was generated by using Bac-N-Blue™ Transfection kit (Invitrogen) according to the manufacture's instruction. The recombinant virus was amplified by infection to High-Five™ insect cells for 5-6 days, and virus titer was determined by plaque assay.
High-Five™ insect cells were pelleted in a 225 ml conical tube by centrifugation at 1000 rpm for 5 min. After discarding the supernatant, the pellet was resuspended in 1.5×10^9 pfu (MOI=5) of high-titer virus solution, followed by incubation for 1.5 hours at room temperature. The cells were pelleted again and washed once in fresh Express Five™ serum free medium. The cells were pelleted again and finally, resuspended in 200 ml of fresh Express Five TM medium, transferred to a 1,000 ml shaker flask, and incubated in a shaker at 27° C., 130 rpm, for 48 hours before the culture supernatant was collected. The purification of 3-domain form of VCAM-1 from the culture supernatant was performed by one-step anion exchange chromatography. Protein concentration was determined by using Coomassie protein assay reagent (Pierce) according to the manufacture's instruction.
Preparation of VCAM-1 Coated Microtiter Plates
Recombinant human VCAM-1 (extracellular domains 1-3) was dissolved at 1.0 μg/ml in PBS. Each well of the microtiter plates (Nalge Nunc International, Fluoronunc Cert, 437958) was coated with 100 μl of substrate or for background control with buffer alone for 15 hours at 4 C. After discarding the substrate solution, the wells were blocked using 150 μl per well of block solution (Kirkegaard Perry Laboratories, 50-61-01) for 90 minutes. The plate was washed with wash buffer containing 24 mM Tris-HCl (pH 7.4), 137 mM NaCl, […] and 2 mM MnCl2 just before addition of the assay.
In Vitro Assay using Ramos Cells
Preparation of Fluorescence Labeled Ramos Cells:
Ramos cells (American Type Culture Collection, Clone CRL-1596) were cultured in RPMI 1640 medium (Nikken Bio Medical Laboratory, CM1101) supplemented with 10% fetal bovine serum (Hyclone, A-1119-L), 100 U/ml penicilin (Gibco BRL, 15140-122) and 100 μg/ml streptomycin (Gibco BRL, 15140-122) in a humidified incubator at 37° C. with 5% CO2. […]

| Compound | IC50 ([1]; Ramos) | melting point | IC50 ([1]; observed IC50 value ranges, Table 4 does not say whether Ramos-VCAM-1 or Jurkat-VCAM-1, read-out: IC50) |
| --- | --- | --- | --- |
| Cc1ccccc1NC(=O)Nc1ccc(CC(=O)NC(CC(C)C)C(=O)Nc2ccc(C(=O)O)cc2)cc1 (stereo not drawn) [Example 37] | < 500 nM | 219 to 223 °C | – |
| Cc1ccccc1NC(=O)Nc1ccc(CC(=O)N(CCN2CCCC2)CC(=O)Nc2ccc(C(=O)O)cc2)cc1 [Example 64, 4-({N-{[4-({[(2-methylphenyl)amino]carbonyl}amino)phenyl]acetyl}-N-[2-(1-pyrrolidinyl)ethyl]glycyl}amino)benzoic acid] | – | – | < 500 nM |
| Cc1ccccc1NC(=O)Nc1ccc(CC(=O)N(CCCN2CCCC2=O)CC(=O)Nc2ccc(C(=O)O)cc2)cc1 [Example 66, 4-({N-{[4-({[(2-methylphenyl)amino]carbonyl}amino)phenyl]acetyl}-N-[3-(2-oxo-1-pyrrolidinyl)propyl]glycyl}amino)benzoic acid] | < 500 nM | – | – |
| Cc1ccccc1NC(=O)Nc1ccc(CC(=O)N(CCCN2CCOCC2)CC(=O)Nc2ccc(C(=O)O)cc2)cc1 [Example 68, 4-({N-{[4-({[(2-methylphenyl)amino]carbonyl}amino)phenyl]acetyl}-N-[3-(4-morpholinyl)propyl]glycyl}amino)benzoic acid] | < 500 nM | – | – |
| COc1cc(CCN(CC(=O)Nc2ccc(C(=O)O)cc2)C(=O)Cc2ccc3nc(Nc4ccccc4)oc3c2)cc(OC)c1 [Example 77, 4-({N-[(2-anilino-1,3-benzoxazol-6-yl)acetyl]-N-[2-(3,5-dimethoxyphenyl)-ethyl]glycyl}amino)benzoic acid] | < 500 nM | – | – |
| O=C(CN(CCCN1CCCC1)C(=O)Cc1ccc2nc(Nc3ccccc3)oc2c1)Nc1ccc(C(=O)O)cc1 [Example 84] | 500 to 2000 nM | – | – |
| COc1cccc(CCN(CC(=O)Nc2ccc(C(=O)O)cc2)C(=O)Cc2ccc3nc(Nc4ccccc4)oc3c2)c1 [Example 87, 4-({N-[(2-anilino-1,3-benzoxazol-6-yl)acetyl]-N-[2-(3-methoxyphenyl)ethyl]-glycyl}amino)benzoic acid] | < 500 nM | – | – |
| Cc1ccccc1NC(=O)Nc1ccc(CC(=O)N[C@@H](Cc2ccccc2)C(=O)Nc2ccc(C(=O)O)cc2)cc1 [Example 88, 4-[(N-{[4-({[(2-methylphenyl)amino]carbonyl}amino)phenyl]acetyl}-L-phenylalanyl)amino]benzoic acid] | < 500 nM | – | – |
| O=C(Cc1ccc2nc(Nc3ccccc3)oc2c1)N[C@@H](Cc1ccccc1)C(=O)Nc1ccc(C(=O)O)cc1 [Example 89, 4-({N-[(2-anilino-1,3-benzoxazol-6-yl)acetyl]-L-phenylalanyl}amino)benzoic acid] | < 500 nM | – | – |
| Cc1ccccc1NC(=O)Nc1ccc(CC(=O)N[C@@H](Cc2ccc(Br)cc2)C(=O)Nc2ccc(C(=O)O)cc2)cc1 [Example 90, 4-[(4-bromo-N-{[4-({[(2-methylphenyl)amino]carbonyl}amino)phenyl]-acetyl}-L-phenylalanyl)amino]benzoic acid] | < 500 nM | – | – |
| O=C(Cc1ccc2nc(Nc3ccccc3)oc2c1)N[C@@H](Cc1ccc(Br)cc1)C(=O)Nc1ccc(C(=O)O)cc1 [Example 91] | 500 to 2000 nM | – | – |
| O=C(CN(Cc1ccccc1)C(=O)Cc1ccc2nc(Nc3ccccc3)oc2c1)Nc1ccc(C(=O)O)cc1 [Example 92] | 500 to 2000 nM | – | – |

Continued, in another order:

| IC50 ([1]; Ramos) | melting point | Compound | IC50 ([1]; observed IC50 value ranges, Table 4 does not say whether Ramos-VCAM-1 or Jurkat-VCAM-1, read-out: IC50) |
| --- | --- | --- | --- |
| < 500 nM | 210 to 218 °C | COCCCN(CC(=O)Nc1ccc(C(=O)O)cc1)C(=O)Cc1ccc(NC(=O)Nc2ccccc2C)cc1 [Example 38] | – |
| < 500 nM | – | Cc1ccccc1NC(=O)Nc1ccc(CC(=O)N(CC(=O)Nc2ccc(C(=O)O)cc2)CC2CCCO2)cc1 (stereo not drawn) [Example 61, 4-{[N-{[4-({[(2-methylphenyl)amino]carbonyl}amino)phenyl]acetyl}-N-(tetrahydro-2-furanylmethyl)glycyl]amino}benzoic acid] | – |
| < 500 nM | – | Cc1ccccc1NC(=O)Nc1ccc(CC(=O)N(CC(=O)Nc2ccc(C(=O)O)cc2)CC2CCNCC2)cc1 [Example 62, 4-{[N-{[4-({[(2-methylphenyl)amino]carbonyl}amino)phenyl]acetyl}-N-(4-piperidinylmethyl)glycyl]amino}benzoic acid] | – |
| < 500 nM | – | Cc1ccccc1NC(=O)Nc1ccc(CC(=O)N(CC(=O)Nc2ccc(C(=O)O)cc2)CC(C)(C)CN)cc1 [Example 63, 4-[(N-(3-amino-2,2-dimethylpropyl)-N-{[4-({[(2-methylphenyl)amino]-carbonyl}amino)phenyl]acetyl}glycyl)amino]benzoic acid] | – |
| < 500 nM | – | CCCN(CC(=O)Nc1ccc(C(=O)O)cc1)C(=O)Cc1ccc(NC(=O)Nc2ccccc2C)cc1 [Example 65, 4-[(N-{[4-({[(2-methylphenyl)amino]carbonyl}amino)phenyl]acetyl}-N-propylglycyl)amino]benzoic acid] | – |
| < 500 nM | – | COCCN(CC(=O)Nc1ccc(C(=O)O)cc1)C(=O)Cc1ccc(NC(=O)Nc2ccccc2C)cc1 [Example 67, 4-[(N-(2-methoxyethyl)-N-{[4-({[(2-methylphenyl)amino]carbonyl}amino)-phenyl]acetyl}glycyl)amino]benzoic acid] | – |
| < 500 nM | – | Cc1ccccc1NC(=O)Nc1ccc(CC(=O)N(CC(=O)Nc2ccc(C(=O)O)cc2)Cc2cccnc2)cc1 [Example 69, 4-{[N-{[4-({[(2-methylphenyl)amino]carbonyl}amino)phenyl]acetyl}-N-(3-pyridinylmethyl)glycyl]amino}benzoic acid] | – |
| < 500 nM | – | Cc1ccccc1NC(=O)Nc1ccc(CC(=O)N(CC(=O)Nc2ccc(C(=O)O)cc2)Cc2ccccn2)cc1 [Example 70, 4-{[N-{[4-({[(2-methylphenyl)amino]carbonyl}amino)phenyl]acetyl}-N-(2-pyridinylmethyl)glycyl]amino}benzoic acid] | – |
| < 500 nM | – | Cc1ccccc1NC(=O)Nc1ccc(CC(=O)N(CC(=O)Nc2ccc(C(=O)O)cc2)Cc2ccncc2)cc1 [Example 71, 4-{[N-{[4-({[(2-methylphenyl)amino]carbonyl}amino)phenyl]acetyl}-N-(4-yridinylmethyl)glycyl]amino}benzoic acid] | – |
| < 500 nM | – | Cc1ccccc1NC(=O)Nc1ccc(CC(=O)N(CCc2c[nH]cn2)CC(=O)Nc2ccc(C(=O)O)cc2)cc1 [Example 72, 4-[(N-[2-(1H-imidazol-4-yl)ethyl]-N-{[4-({[(2-methylphenyl)amino]carbonyl}amino)phenyl]acetyl}glycyl)amino]benzoic acid] | – |
| < 500 nM | – | Cc1ccccc1NC(=O)Nc1ccc(CC(=O)N(CCc2ccccn2)CC(=O)Nc2ccc(C(=O)O)cc2)cc1 [Example 73, 4-({N-{[4-({[(2-methylphenyl)amino]carbonyl}amino)phenyl]acetyl}-N-[2-(2-pyridinyl)ethyl]glycyl}amino)benzoic acid] | – |
| < 500 nM | – | COc1cccc(CCN(CC(=O)Nc2ccc(C(=O)O)cc2)C(=O)Cc2ccc(NC(=O)Nc3ccccc3C)cc2)c1 [Example 85, 4-[(N-[2-(3-methoxyphenyl)ethyl]-N-{[4-({[(2-methylphenyl)amino]-carbonyl}amino)phenyl]acetyl}glycyl)amino]benzoic acid] | – |
| < 500 nM | – | Cc1ccccc1NC(=O)Nc1ccc(CC(=O)N(CC(=O)Nc2ccc(C(=O)O)cc2)Cc2ccccc2)cc1 [Example 86, 4-[(N-benzyl-N-{[4-({[(2-methylphenyl)amino]carbonyl}amino)phenyl]-acetyl}glycyl)amino]benzoic acid] | – |
